In US12570647B2 (Saint Louis University, priority 2021, dated 2026) one finds MIC80 data, which are given here for 37 compounds.

In this assay the test system is S. aureus ATCC25923. Put plainly: S. aureus MIC80 determination, broth microdilution (CLSI) in CAMHB. The format is cell-based. The conditions noted are these: Staphylococcus aureus, ATCC25923; Table 1; S. aureus ATCC 25923; growth inhibition ≥80% vs vehicle, 16-24 h; read-out: ATCC 25923 MIC80. The protocol:
S. Aureus MIC80 determinations in S. aureus ATCC25923 or in multidrug-resistant strains AR215, AR217 and AR255. MIC80's were determined by the broth microdilution method recommended by the Clinical and Laboratory Standards Institute (CLSI) in Cation-adjusted Mueller-Hinton broth (CAMHB). (Cao et al., 2018). In the preliminary screening, three compound concentrations were used: 5.8, 20.4, and 71.4 μM; for quantitative MIC80 measurements, a 1.5-fold dilution series of the compounds was prepared in CAMHB. Overnight bacterial culture was added to the diluted compounds in a 96-well plate after adjusting the bacterial concentration to achieve a 5×10^5 CFU/mL final concentration. After 16-24 h incubation at 35±2° C., the plates were read at 600 nm in a microplate reader. The MIC80 was defined as the concentration of an antibacterial agent that inhibited bacteria growth ≥80% compared to vehicle-treated control cultures. All values were determined at least twice independently, and the average number is reported.

In brackets after ≈: the same amount, converted by molar mass.

Regarding `Cc1cc(Cl)cc2sc(NCCCn3ccnc3)nc12` [Example 1, N-(3-(1H-imidazol-1-yl)propyl)-6-chloro-4-methylbenzo[d]thiazol-2-amine], the MIC80 came out at 19.8 µM (≈ 6.08 µg/mL).

In the case of `Cc1cc(Cl)cc2sc(N(CCCn3ccnc3)C(=O)c3ccco3)nc12` [Example 2, N-(3-(1H-imidazol-1-yl)propyl)-N-(6-chloro-4-methylbenzo[d]thiazol-2-yl)furan-2-carboxamide], the MIC80 worked out at 1.7 µM (≈ 0.682 µg/mL).

For the compound `Cc1cc(Cl)cc2sc(N(CCCn3ccnc3)C(=O)c3ccccc3)nc12` [Example 3, N-(3-(1H-imidazol-1-yl)propyl)-N-(6-chloro-4-methylbenzo[d]thiazol-2-yl)benzamide], the MIC80 came out at 3.9 µM (≈ 1.6 µg/mL).

Turning to `Cc1cc(Cl)cc2sc(N(CCCn3ccnc3)C(=O)c3ccccn3)nc12` [Example 5, N-(3-(1H-imidazol-1-yl)propyl)-N-(6-chloro-4-methylbenzo[d]thiazol-2-yl)picolinamide], the MIC80 is 8.8 µM (≈ 3.62 µg/mL).

Turning to `Cc1cc(Cl)cc2sc(N(CCCn3ccnc3)C(=O)/C=C/c3ccco3)nc12` [Example 6, (E)-N-(3-(1H-imidazol-1-yl)propyl)-N-(6-chloro-4-methylbenzo[d]thiazol-2-yl)-3-(furan-2-yl)acrylamide], the MIC80 came to 2.6 µM (≈ 1.11 µg/mL).

Turning to `Cc1cc(Cl)cc2sc(N(CCCn3ccnc3)C(=O)c3ccoc3)nc12` [Example 7, N-(3-(1H-imidazol-1-yl)propyl)-N-(6-chloro-4-methylbenzo[d]thiazol-2-yl)furan-3-carboxamide], the MIC80 amounted to 2.6 µM (≈ 1.04 µg/mL).

As for `Cc1cc(Cl)cc2sc(N(CCCn3ccnc3)C(=O)C3CCCC3)nc12` [Example 8, N-(3-(1H-imidazol-1-yl)propyl)-N-(6-chloro-4-methylbenzo[d]thiazol-2-yl)cyclopentanecarboxamide], the MIC80 stood at 3.9 µM (≈ 1.57 µg/mL).

`Cc1ccc(C(=O)N(CCCn2ccnc2)c2nc3c(C)cc(Cl)cc3s2)s1` [Example 9, N-(3-(1H-imidazol-1-yl)propyl)-N-(6-chloro-4-methylbenzo[d]thiazol-2-yl)-5-methylthiophene-2-carboxamide]: the MIC80 was 2.6 µM (≈ 1.12 µg/mL).

Take `Cc1cc(Cl)cc2sc(N(CCCn3ccnc3)C(=O)C3CC3)nc12` [Example 10, N-(3-(1H-imidazol-1-yl)propyl)-N-(6-chloro-4-methylbenzo[d]thiazol-2-yl)cyclopropanecarboxamide]: the MIC80 is 1.7 µM (≈ 0.637 µg/mL).

Regarding `Cc1cc(Cl)cc2sc(N(CCCn3ccnc3)C(=O)C(C)C)nc12` [Example 11, N-(3-(1H-imidazol-1-yl)propyl)-N-(6-chloro-4-methylbenzo[d]thiazol-2-yl)isobutyramide], the MIC80 amounted to 2.7 µM (≈ 1.02 µg/mL).

Take `Cc1cc(Cl)cc2sc(N(CCCn3ccnc3)C(=O)c3ccc(C(=O)O)cc3)nc12` [Example 12, 4-((3-(1H-imidazol-1-yl)propyl)(6-chloro-4-methylbenzo[d]thiazol-2-yl)carbamoyl)benzoic acid]: the MIC80 was over 100 µM.

Take `Cc1cc(Cl)cc2sc(N(CCCn3ccnc3)C(=O)c3cc4ccccc4o3)nc12` [Example 13, N-(3-(1H-imidazol-1-yl)propyl)-N-(6-chloro-4-methylbenzo[d]thiazol-2-yl)benzofuran-2-carboxamide]: the MIC80 was determined as 8.8 µM (≈ 3.97 µg/mL).

On to `Cc1cc(Cl)cc2sc(N(CCCn3ccnc3)C(=O)C3CCCO3)nc12` (stereo not shown) [Example 14, N-(3-(1H-imidazol-1-yl)propyl)-N-(6-chloro-4-methylbenzo[d]thiazol-2-yl)tetrahydrofuran-2-carboxamide], for which the MIC80 is 29.6 µM (≈ 12 µg/mL).

On to `Cc1cc(C(=O)N(CCCn2ccnc2)c2nc3c(C)cc(Cl)cc3s2)oc1C` [Example 16, N-(3-(1H-imidazol-1-yl)propyl)-N-(6-chloro-4-methylbenzo[d]thiazol-2-yl)-4,5-dimethylfuran-2-carboxamide], for which the MIC80 turned out to be 3.9 µM (≈ 1.67 µg/mL).

Regarding `Cc1cc(Cl)cc2sc(N(CCCn3ccnc3)C(=O)C3CCC3)nc12` [Example 17, N-(3-(1H-imidazol-1-yl)propyl)-N-(6-chloro-4-methylbenzo[d]thiazol-2-yl)cyclobutanecarboxamide], the MIC80 stood at 2.6 µM (≈ 1.01 µg/mL).

In the case of `Cc1cc(Cl)cc2sc(N(CCCn3ccnc3)C(=O)C3(C)CC3)nc12` [Example 18, N-(3-(1H-imidazol-1-yl)propyl)-N-(6-chloro-4-methylbenzo[d]thiazol-2-yl)-1-methylcyclopropanecarboxamide], the MIC80 amounted to 5.9 µM (≈ 2.29 µg/mL).

For the compound `Cc1cc(Cl)cc2sc(N(CCCn3ccnc3)C(=O)c3ccc[nH]3)nc12` [Example 19, N-(3-(1H-imidazol-1-yl)propyl)-N-(6-chloro-4-methylbenzo[d]thiazol-2-yl)-1H-pyrrole-2-carboxamide], the MIC80 worked out at 1.3 µM (≈ 0.52 µg/mL).

In the case of `CSCc1ccc(C(=O)N(CCCn2ccnc2)c2nc3c(C)cc(Cl)cc3s2)o1` [Example 20, N-(3-(1H-imidazol-1-yl)propyl)-N-(6-chloro-4-methylbenzo[d]thiazol-2-yl)-5-((methylthio)methyl)furan-2-carboxamide], the MIC80 came out at 2.9 µM (≈ 1.34 µg/mL).

For `Cc1cc(Cl)cc2sc(N(CCCn3ccnc3)C(=O)[C@H](Cc3ccccc3)NC(=O)OC(C)(C)C)nc12` [Example 21, (S)-tert-butyl (1-((3-(1H-imidazol-1-yl)propyl)(6-chloro-4-methylbenzo[d]thiazol-2-yl)amino)-1-oxo-3-phenylpropan-2-yl)carbamate], the MIC80 is 14.8 µM (≈ 8.2 µg/mL).

On to `Cc1cc(Cl)cc2sc(N(CCCn3ccnc3)S(=O)(=O)c3cccs3)nc12` [Example 22, N-(3-(1H-imidazol-1-yl)propyl)-N-(6-chloro-4-methylbenzo[d]thiazol-2-yl)thiophene-2-sulfonamide], for which the MIC80 amounted to 3.9 µM (≈ 1.77 µg/mL).

`Cc1cc(Cl)cc2sc(N(CCCn3ccnc3)S(=O)(=O)c3ccccc3)nc12` [Example 23, N-(3-(1H-imidazol-1-yl)propyl)-N-(6-chloro-4-methylbenzo[d]thiazol-2-yl)benzenesulfonamide]: the MIC80 is 3.9 µM (≈ 1.74 µg/mL).

Turning to `Cc1cc(Cl)cc2sc(N(CCCn3ccnc3)S(=O)(=O)C3CCCCC3)nc12` [Example 24, N-(3-(1H-imidazol-1-yl)propyl)-N-(6-chloro-4-methylbenzo[d]thiazol-2-yl)cyclohexanesulfonamide], the MIC80 is 13.2 µM (≈ 5.98 µg/mL).

Consider `Cc1cc(Cl)cc2sc(N(CCCn3ccnc3)S(=O)(=O)c3ccco3)nc12` [Example 25, N-(3-(1H-imidazol-1-yl)propyl)-N-(6-chloro-4-methylbenzo[d]thiazol-2-yl)furan-2-sulfonamide], for which the MIC80 was determined as 8.8 µM (≈ 3.85 µg/mL).

Take `Cc1cc(Cl)cc2sc(N(CCCn3ccnc3)Cc3ccccc3)nc12` [Example 26, N-(3-(1H-imidazol-1-yl)propyl)-N-benzyl-6-chloro-4-methylbenzo[d]thiazol-2-amine]: the MIC80 stood at 3.9 µM (≈ 1.55 µg/mL).

`Cc1cc(Cl)cc2sc(N(CCCn3ccnc3)CC3CC3)nc12` [Example 27, N-(3-(1H-imidazol-1-yl)propyl)-6-chloro-N-(cyclopropylmethyl)-4-methylbenzo[d]thiazol-2-amine]: the MIC80 came to 6.6 µM (≈ 2.38 µg/mL).

With `Cc1cc(Cl)cc2sc(N(CCCn3ccnc3)CCCn3ccnc3)nc12` [Example 28, N,N-bis(3-(1H-imidazol-1-yl)propyl)-6-chloro-4-methylbenzo[d]thiazol-2-amine], the MIC80 was determined as 5.9 µM (≈ 2.45 µg/mL).

Take `Cc1cc(Cl)cc2sc(N(CCCn3cc[n+](C)c3)C(=O)c3ccco3)nc12` [Example 29, 1-(3-(N-(6-chloro-4-methylbenzo[d]thiazol-2-yl)furan-2-carboxamido)propyl)-3-methyl-1H-imidazol-3-ium]: the MIC80 turned out to be 13.2 µM.

With `Cc1cc(Cl)cc2sc(N3CCNCC3)nc12` [Example 30, 6-chloro-4-methyl-2-(piperazin-1-yl)-1,3-benzothiazole], the MIC80 was determined as 100 µM (≈ 26.8 µg/mL).

Take `CC(=O)N1CCN(c2nc3c(C)cc(Cl)cc3s2)CC1` [Example 31, 1-(4-(6-chloro-4-methylbenzo[d]thiazol-2-yl)piperazin-1-yl)ethan-1-one]: the MIC80 is over 100 µM.

Regarding `Cc1cc(Cl)cc2sc(N3CCC(O)CC3)nc12` [Example 32, 1-(6-chloro-4-methylbenzo[d]thiazol-2-yl)piperidin-4-ol], the MIC80 was over 100 µM.

Take `Cc1cc(Cl)cc2sc(N3CCC(N)CC3)nc12` [Example 33, 1-(6-chloro-4-methyl-1,3-benzothiazol-2-yl)piperidin-4-amine]: the MIC80 was found to be 66.7 µM (≈ 18.8 µg/mL).

Consider `Cc1cc(Cl)cc2sc(N3CCC(CN)CC3)nc12` [Example 34], for which the MIC80 was 44.4 µM (≈ 13.1 µg/mL).

Regarding `Cc1cc(Cl)cc2sc(N3CCCC(Cn4ccnc4)C3)nc12` (stereo not shown) [Example 35, 6-chloro-2-{3-[(1H-imidazol-1-yl)methyl]piperidin-1-yl}-4-methyl-1,3-benzothiazole], the MIC80 turned out to be 66.7 µM (≈ 23.1 µg/mL).

As for `Cc1cc(Cl)cc2sc(N(CCCn3ccnc3)C(=O)CN)nc12` [Example 36, 2-amino-N-(6-chloro-4-methyl-1,3-benzothiazol-2-yl)-N-[3-(1H-imidazol-1-yl)propyl]acetamide], the MIC80 was over 100 µM.

`Cc1cc(Cl)cc2sc(N(CC3CCNCC3)C(=O)C3CCC3)nc12` [Example 37, N-(6-chloro-4-methylbenzo[d]thiazol-2-yl)-N-(piperidin-4-ylmethyl)cyclobutanecarboxamide]: the MIC80 was 19.8 µM (≈ 7.48 µg/mL).

On to `Cc1cc(Cl)cc2sc(N(CC3CCN(C)CC3)C(=O)C3CCC3)nc12` [Example 38, N-(6-chloro-4-methyl-1,3-benzothiazol-2-yl)-N-[(1-methylpiperidin-4-yl)methyl]cyclobutanecarboxamide], for which the MIC80 was over 100 µM.

Turning to `Cc1cc(Cl)cc2sc(N(CC3CCNCC3)C(=O)C3CC3)nc12` [Example 39], the MIC80 is 19.8 µM (≈ 7.21 µg/mL).

As a reminder, the MIC80 is an inhibitory concentration at the 80% level, which refers to growth in some studies and to a panel of isolates in others.
